# Experimental data as given in patent US10988465B2, “CXCR4 inhibitors and uses thereof” (X4 Pharmaceuticals, Inc., priority 2016, dated 2021).
# pIC50: −log10 of the molar value. Where two headings read alike, the source gives them in different places.
# Tests used:
# [1] = target: T1, Jurkat cells expressing CXCR4 (Homo sapiens, UniProt P61073); test: Chemokine (CXCL12-AF647) binding inhibition assay; settings: CXCL12-AF647 25 ng/mL, read-out: IC50 CXCL-12 binding Jurkat
# T1 construct: endogenous in cells; host or cells: Jurkat
# Summary of the method: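 Cells in HBSS, 20 mM HEPES, 0.2% BSA, pH 7.4, preincubated 15 min at room temperature with compound, then 25 ng/mL CXCL12-AF647 for 30 min. After washing and paraformaldehyde fixation, bound ligand read by flow cytometry; percent inhibition calculated from MFI relative to unlabeled and ligand-only controls.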
# [2] = Rat brain uptake assay: pharmacokinetics and brain penetration after IV-PO administration; assay type: in vivo, male SD rats; settings: male, SD; for clearance / AUC(0-t) / bioavailability / half-life: Rat (3 mg/kg IV; 10 mg/kg, PO); for bioavailability: read-out: F % (oral bioavailability); for half-life: read-out: t½ (converted)
# Experimental: Example 39: Pharmacokinetics and Brain Penetration Experiment to Determine Brain and Plasma Concentration of Compounds after IV-PO Administration to Male SD Rats
# The IV and PO dosing solutions were prepared in 50 mM citrate buffer (pH 4.0) at 2 mg/mL. The blood collection was performed as follows: the animal was restrained manually at the designated time points, approximately 150 μL of blood sample was collected via cardiac puncture vein into EDTA-2K tubes. The blood samples were maintained in wet ice first and centrifuged to obtain plasma (2000 g, 4° C., 5 min) within 15 minutes post sampling. The brain collection was performed as follows: a mid-line incision was made in the animal's scalp and the skin was retracted. Using small bone cutters and rongeurs, the skull overlying the brain was removed. The brain was removed using a spatula and rinsed with cold saline. The brain was placed in screw-top tubes and then stored under −70° C. until analysis. The CSF collection was performed as follows: the animal was euthanized under deep anesthesia with air bubble tail vein injection. The CSF was collected by direct puncture of butterfly needle into the cisterna magna, using the occipital bone and the wings of the atlas as landmarks. A piece of white paper was used as a background to monitor color change in the sample just above the needle during collection. Upon observation of color change, the PE tubing was quickly clamped off above the color change and cut just above the clamped site. The clear sample was drawn into the syringe.
# An aliquot of 30 μL sample was added to 100 μL MeCN containing 100 ng/mL IS (Dexamethasone). The mixture was vortexed for 10 min and centrifuged at 5800 rpm for 10 min. An aliquot of 40 μL supernatant was added with 40 μl H2O and the mixture was vortexed for 5 min. An aliquot of 2 μL supernatant was injected for LC-MS/MS analysis.
# The sample was homogenized with 3 volumes (v/w) of PBS. An aliquot of 30 μL sample was added with 100 μL MeCN containing 100 ng/mL IS (Dexamethasone). The mixture was vortexed for 10 min and centrifuged at 5800 rpm for 10 min. An aliquot of 40 μL supernatant was added with 40 μl H2O and the mixture was vortexed for 5 min. An aliquot of 2 μL supernatant was injected for LC-MS/MS analysis.
# An aliquot of 10 μL sample was added to 10 μL MeOH/H2O (1/1) and 40 μL ACN containing 200 ng/mL IS (Dexamethasone) 120 μL H2O. The mixture was vortexed for 5 min. An aliquot of 2 μL supernatant was injected for LC-MS/MS analysis.
# The sample analysis was performed on UPLC-MS/MS-02 (Triple Quad™ 4000) under the following conditions: positive ion, ESI, MRM detection using dexamethasone as internal standard. HPLC conditions: mobile phase A: H2O-0.1% FA, mobile phase B: MeCN-0.1% FA on ACQUITY UPLC HSS T3 (2.1×50 mm, 1.8 μm) column at 60° C. In Table 11, F % means means oral bioavailability (the total number for protein bound and free fraction).
# [3] = as above; assay type: in vivo, male SD rats
# [4] = brain (brain proteins), read-out: Fu (b) % (fraction of drug unbound to brain proteins)
# [5] = plasma, read-out: Fu (p) % (fraction of drug unbound to plasma proteins)
# T1 sequence (P61073 whole entry): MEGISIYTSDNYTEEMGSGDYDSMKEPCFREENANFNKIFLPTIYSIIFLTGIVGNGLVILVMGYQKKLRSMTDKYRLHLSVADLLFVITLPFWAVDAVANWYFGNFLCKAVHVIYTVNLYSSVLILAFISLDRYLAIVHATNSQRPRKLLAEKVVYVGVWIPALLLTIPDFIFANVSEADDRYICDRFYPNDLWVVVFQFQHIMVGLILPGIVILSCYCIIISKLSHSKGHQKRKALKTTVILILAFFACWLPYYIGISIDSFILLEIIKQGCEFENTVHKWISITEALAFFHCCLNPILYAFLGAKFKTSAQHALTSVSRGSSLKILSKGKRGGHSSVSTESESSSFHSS
SMILES,pIC50 [1],"Kp uu ([2]; brain/plasma (unbound), Fu (b)*AUC last (b)/Fu (p)*AUC last (p), Rat, read-out: Kp, uu (unbound brain/unbound plasma drug concentration ratio))","Kp ([2]; brain/plasma, AUC last(b)/AUC last(p), Rat, read-out: Kp (brain/plasma drug concentration ratio))",clearance ([2]; plasma) [mL/min/kg],"AUC(0-t) ([2]; plasma, read-out: AUClast (P)) [ng·h/mL]",bioavailability ([2]; plasma) [%],half-life ([2]; plasma) [h],"AUC(0-t) ([2]; brain, read-out: AUClast (b)) [ng·h/mL]","fraction unbound [3, 4]","fraction unbound [3, 5]"
CN1CCN(c2cccc3nc([C@H]4CCC[C@@H](c5ncccc5Cl)N4)[nH]c23)CC1 (racemic) [I-122],7.00 to 11.00,0.2,1.22,31.7,5440,74.6,5.31,6650,0.041,0.251
"Cc1cccnc1[C@@H]1CCC[C@H](c2nc3cccc(N4CCN(C)CC4)c3[nH]2)N1C (racemic) [I-3, 2-((2R,6S)-1-methyl-6-(3-methylpyridin-2-yl)piperidin-2-yl)-7-(4-methylpiperazin-1-yl)-1H-benzo[d]imidazole]",7.00 to 11.00,,,123,503,37.6,2.1,1520,0.014,0.101
